From patent US20230167093A1, “COMPOUNDS AND METHODS FOR MODULATING SPLICING” (REMIX THERAPEUTICS INC., priority 2020, published 2023) come the findings set out here.

Holding throughout (type): cell-based
The test system of one experiment is HTT AJ mRNA. The experiment is described as follows: RT-qPCR splicing assay, HTT alternative junction (AJ) mRNA increase. The note with it: A673 or K562 cells, 24 hours compound treatment, top dose 10 uM; concentration having 50% response in AJ increase. On the procedure: (§1) Compounds described herein were used to modulate RNA transcript abundance in cells. The expression of a target mRNA was measured by detecting the formation of an exon-exon junction in the canonical transcript (CJ). A compound mediated exon-inclusion event was detected by observing an increase in formation of a new junction with an alternative exon (AJ). Real-time qPCR assays were used to detect these splicing switches and interrogate the potency of various compounds towards different target genes. A high-throughput real time quantitative PCR (RT-qPCR) assay was developed to measure these two isoforms of the mRNA (CJ and AJ) for an exemplary gene, HTT, together with a control housekeeping gene, GAPDH or GUSB or PPIA, used for normalization. Briefly, the A673 or K562 cell line was treated with various compounds described herein (e.g., compounds of Formula (I) or (II)). After treatment, the levels of the HTT mRNA targets were determined from each sample of cell lysate by cDNA synthesis followed by qPCR.
(§2) The A673 cell line was cultured in DMEM with 10% FBS. Cells were diluted with full growth media and plated in a 96-well plate (15,000 cells in 100 ul media per well). The plate was incubated at 37° C. with 5% CO2 for 24 hours to allow cells to adhere. An 11-point 3-fold serial dilution of the compounds was made in DMSO then diluted in media in an intermediate plate. Compounds were transferred from the intermediate plate to the cell plate with the top dose at a final concentration of 10 uM in the well. Final DMSO concentration was kept at or below 0.25%. The cell plate was returned to the incubator at 37° C. with 5% CO2 for an additional 24 hours.
(§3) The K562 cell line was cultured in IMDM with 10% FBS. For K562, cells were diluted with full growth media and plated in either a 96-well plate (50,000 cells in 50 uL media per well) or a 384-well plate (8,000-40,000 cells in 45 uL media per well). An 11-point 3-fold serial dilution of the compounds were made in DMSO then diluted in media in an intermediate plate. Compound was transferred from the intermediate plate to the cell plate with the top dose at a final concentration of 10 uM in the well. Final DMSO concentration was kept at or below 0.25%. Final volume was 100 uL for 96-well plate and 50 uL for 384-well plate. The cell plate was then placed in an incubator at 37° C. with 5% CO2 for 24 hours.
(§4) The cells were then gently washed with 50 uL-100 uL cold PBS before proceeding to addition of lysis buffer. 30 uL-50 uL of room temperature lysis buffer with DNAse I (and optionally RNAsin) was added to each well. Cells were shaken/mixed thoroughly at room temperature for 5-10 minutes for lysis to take place and then 3 uL-5 uL of room temperature stop solution was added and wells were shaken/mixed again. After 2-5 minutes, the cell lysate plate was transferred to ice for RT-qPCR reaction setup. The lysates could also be frozen at −80° C. for later use.
(§5) In some cases, a direct lysis buffer was used. An appropriate volume of 3× lysis buffer (10 mM Tris, 150 mM NaCl, 1.5%-2.5% Igepal and 0.1-1 U/uL RNAsin, pH 7.4) was directly added to either K562 or A673 cells in media and mixed by pipetting 3 times. The plates were then incubated at room temperature with shaking/rocking for 20-50 minutes to allow for lysis to take place. After this time, the cell lysate plate was transferred to ice to set up for the RT-qPCR reactions. The lysates could also be frozen at −80° C. for later use.
(§6) To set up 10 uL RT-qPCR reactions, cell lysates were transferred to 384-well qPCR plates containing the master mix according to the table below. The plates were sealed, gently vortexed, and spun down before the run. The volumes were adjusted accordingly in some instances where the reaction was carried in 20 uL. The table below summarizes the components of the RT-qPCR reactions:
(§7) The RT-qPCR reaction was performed using a QuantStudio (ThermoFisher) under the following fast cycling conditions. […]

The test system of experiment [1] is HTT CJ mRNA. The experiment is described as follows: Gene panel canonical junction qPCR assay, HTT. The note with it: protocol as above, concentration having 50% response in CJ decrease, read-out: HTT IC50 (decrease in CJ mRNA levels). The method, then: as §1, §2, §3, §4, §5, §6, §7
For experiment [2], the system named is HTT CJ mRNA. The experiment is described as follows: RT-qPCR splicing assay, HTT canonical junction (CJ) mRNA decrease. The following applies: A673 or K562 cells, 24 hours compound treatment, top dose 10 uM; concentration having 50% response in CJ decrease. On the procedure:
as §1, §2, §3, §4, §5, §6, §7

The next experiment concerns SMN2 CJ mRNA. As to the kind of experiment: Gene panel canonical junction qPCR assay, SMN2. The note with it: protocol as above, concentration having 50% response in CJ decrease, read-out: SMN2 IC50 (decrease in CJ mRNA levels). On the procedure:
as §1, with “After treatment, the levels of the HTT mRNA targets were determined from each sample of cell lysate by cDNA synthesis followed by qPCR.” left out
as §2, §3, §4, §5, §6
The RT-qPCR reaction was performed using a QuantStudio (ThermoFisher) under the following fast cycling conditions. All samples and standards were analyzed at least in duplicate. […]

A further experiment relates to Target C CJ mRNA. As to the kind of experiment: Gene panel canonical junction qPCR assay, Target C. The note with it: protocol as above, concentration having 50% response in CJ decrease, read-out: Target C IC50 (decrease in CJ mRNA levels). The method, then:
as §1, §2, §3, §4, §5, §6, §7

As to `Cn1cc2cc(-n3cnc4ccc(C5=CCNCC5)cc4c3=O)ccc2n1` [Compound 151, 3-(2-methyl-2H-indazol-5-yl)-6-(1,2,3,6-tetrahydropyridin-4-yl)quinazolin-4(3H)-one], the AC50 in the experiment with HTT AJ mRNA and with HTT CJ mRNA [2] was over 10 µM each time. Also, the IC50 with HTT CJ mRNA [1] and with SMN2 CJ mRNA was over 10 µM throughout.
As to `CN1CCN(c2ccc3ncn(-c4ccc5nn(C)cc5c4)c(=O)c3c2)CC1` [Compound 154, 3-(2-methyl-2H-indazol-5-yl)-6-(4-methylpiperazin-1-yl)quinazolin-4(3H)-one], the AC50 in the experiment on HTT AJ mRNA and in the experiment on HTT CJ mRNA [2] was over 10 µM each time. Moreover, the IC50 with HTT CJ mRNA [1] and in the experiment on SMN2 CJ mRNA was over 10 µM each time.
Turning to `Cn1cc2cc(-n3cnc4ccc(N5CCNCC5)cc4c3=O)ccc2n1` [Compound 155, 3-(2-methyl-2H-indazol-5-yl)-6-(piperazin-1-yl)quinazolin-4(3H)-one], the AC50 in the experiment with HTT AJ mRNA and with HTT CJ mRNA [2] was over 10 µM throughout. Moreover, the IC50 with HTT CJ mRNA [1] and in the experiment with SMN2 CJ mRNA was over 10 µM each time.
As for `CN1[C@H]2CC[C@@H]1C=C(c1ccc3ncn(-c4ccc5nn(C)cc5c4)c(=O)c3c1)C2` [Compound 168, 3-(2-methyl-2H-indazol-5-yl)-6-((1R,5S)-8-methyl-8-azabicyclo[3.2.1]oct-2-en-3-yl)quinazolin-4(3H)-one], the IC50 with Target C CJ mRNA, with HTT CJ mRNA [1] and in the experiment on SMN2 CJ mRNA was over 10 µM each time. In addition, the AC50 in the experiment with HTT AJ mRNA and in the experiment on HTT CJ mRNA [2] was over 10 µM in each case.
Turning to `Cc1cc(-c2ccc3ncn(C4CCNCC4)c(=O)c3c2)cc2cn(C)nc12` [Compound 169, 6-(2,7-dimethyl-2H-indazol-5-yl)-3-(piperidin-4-yl)quinazolin-4(3H)-one], the IC50 with Target C CJ mRNA, in the experiment on HTT CJ mRNA [1] and in the experiment with SMN2 CJ mRNA was over 10 µM each time. In addition, the AC50 in the experiment with HTT AJ mRNA and in the experiment with HTT CJ mRNA [2] was over 10 µM each time.
With `Cc1cc(-c2ccc3ncn(C4CCN(C)CC4)c(=O)c3c2)cc2cn(C)nc12` [Compound 170, 6-(2,7-dimethyl-2H-indazol-5-yl)-3-(1-methylpiperidin-4-yl)quinazolin-4(3H)-one], the IC50 in the experiment on Target C CJ mRNA, in the experiment with HTT CJ mRNA [1] and in the experiment on SMN2 CJ mRNA was over 10 µM throughout. Further, the AC50 in the experiment on HTT AJ mRNA and with HTT CJ mRNA [2] was over 10 µM throughout.
In the case of `CN1CCC(Nc2ccc3ncn(-c4ccc5nn(C)cc5c4)c(=O)c3c2)CC1` [Compound 171, 3-(2-methyl-2H-indazol-5-yl)-6-((1-methylpiperidin-4-yl)amino)quinazolin-4(3H)-one], the IC50 with Target C CJ mRNA, in the experiment on HTT CJ mRNA [1] and in the experiment on SMN2 CJ mRNA was over 10 µM throughout. Also, the AC50 in the experiment on HTT AJ mRNA and in the experiment with HTT CJ mRNA [2] was over 10 µM each time.
Regarding `CN1CCN(c2ccc3ncn(-c4cc(F)c5nn(C)cc5c4)c(=O)c3c2)CC1` [Compound 194, 3-(7-fluoro-2-methyl-2H-indazol-5-yl)-6-(4-methylpiperazin-1-yl)quinazolin-4(3H)-one], the IC50 in the experiment with Target C CJ mRNA, in the experiment with HTT CJ mRNA [1] and in the experiment on SMN2 CJ mRNA was 1 to 10 µM in each case. Also, the AC50 with HTT AJ mRNA and in the experiment with HTT CJ mRNA [2] was 1 to 10 µM throughout.
For the compound `Cc1cn2cc(-n3cnc4ccc(N5CCNCC5)cc4c3=O)cc(F)c2n1` [Compound 195, 3-(8-fluoro-2-methylimidazo[1,2-a]pyridin-6-yl)-6-(piperazin-1-yl)quinazolin-4(3H)-one], the half-maximal inhibitory concentration (IC50) with Target C CJ mRNA, in the experiment with HTT CJ mRNA [1] and with SMN2 CJ mRNA was over 10 µM throughout. Also, the concentration at half-maximal activity (AC50) in the experiment on HTT AJ mRNA and in the experiment on HTT CJ mRNA [2] was over 10 µM in each case.
For `Cn1cc2cc(-n3cnc4ccc(N5CCNCC5)cc4c3=O)cc(F)c2n1` [Compound 196, 3-(7-fluoro-2-methyl-2H-indazol-5-yl)-6-(piperazin-1-yl)quinazolin-4(3H)-one], the IC50 in the experiment on Target C CJ mRNA, with HTT CJ mRNA [1] and with SMN2 CJ mRNA was over 10 µM in each case. Also, the AC50 in the experiment with HTT AJ mRNA and with HTT CJ mRNA [2] was over 10 µM in each case.
For the compound `Cc1cn2cc(-n3cnc4ccc(N5CCN(C)CC5)cc4c3=O)cc(F)c2n1` [Compound 197, 3-(8-fluoro-2-methylimidazo[1,2-a]pyridin-6-yl)-6-(4-methylpiperazin-1-yl)quinazolin-4(3H)-one], the 50% inhibitory concentration (IC50) with Target C CJ mRNA, with HTT CJ mRNA [1] and in the experiment with SMN2 CJ mRNA was 1 to 10 µM throughout. The half-maximal activity concentration (AC50) in the experiment with HTT AJ mRNA and in the experiment on HTT CJ mRNA [2] was 1 to 10 µM in each case.
Regarding `CN(c1ccc2ncn(-c3cc(F)c4nn(C)cc4c3)c(=O)c2c1)C1CCNCC1` [Compound 198, 3-(7-fluoro-2-methyl-2H-indazol-5-yl)-6-(methyl(piperidin-4-yl)amino)quinazolin-4(3H)-one], the IC50 with Target C CJ mRNA, in the experiment with HTT CJ mRNA [1] and in the experiment with SMN2 CJ mRNA was over 10 µM in each case. Besides, the AC50 in the experiment with HTT AJ mRNA and in the experiment on HTT CJ mRNA [2] was over 10 µM each time.
`CN1CCC(N(C)c2ccc3ncn(-c4cc(F)c5nn(C)cc5c4)c(=O)c3c2)CC1` [Compound 199, 3-(7-fluoro-2-methyl-2H-indazol-5-yl)-6-(methyl(1-methylpiperidin-4-yl)amino)quinazolin-4(3H)-one]: the IC50 with Target C CJ mRNA, in the experiment on HTT CJ mRNA [1] and in the experiment with SMN2 CJ mRNA was over 10 µM throughout. The AC50 with HTT AJ mRNA and in the experiment on HTT CJ mRNA [2] was over 10 µM in each case.
Turning to `Cc1cn2cc(-n3cnc4ccc(N(C)C5CCNCC5)cc4c3=O)cc(F)c2n1` [Compound 200, 3-(8-fluoro-2-methylimidazo[1,2-a]pyridin-6-yl)-6-(methyl(piperidin-4-yl)amino)quinazolin-4(3H)-one], the IC50 in the experiment on Target C CJ mRNA, in the experiment on HTT CJ mRNA [1] and in the experiment on SMN2 CJ mRNA was over 10 µM in each case. Besides, the AC50 in the experiment with HTT AJ mRNA and in the experiment with HTT CJ mRNA [2] was over 10 µM throughout.
For the compound `Cc1cn2nc(-n3cnc4ccc(N5CCNCC5)cc4c3=O)cc(C)c2n1` [Compound 201, 3-(2,8-dimethylimidazo[1,2-b]pyridazin-6-yl)-6-(piperazin-1-yl)quinazolin-4(3H)-one], the half-maximal inhibitory concentration (IC50) in the experiment with Target C CJ mRNA, with HTT CJ mRNA [1] and in the experiment with SMN2 CJ mRNA was over 10 µM in each case. Also, the AC50 with HTT AJ mRNA and in the experiment on HTT CJ mRNA [2] was over 10 µM throughout.
